# Test results taken from patent US20240116985A1, “STAPLED PEPTIDES AND METHODS THEREOF” (priority 2020, published 2024).
# Where two headings read alike, the source gives them in different places.
# Biological target: T1, full-length beta-Catenin (Uniprot ID P35222) (Homo sapiens, UniProt P35222)
# T1 construct: 10 nM full-length beta-Catenin (Uniprot ID P35222)
# T1 sequence (P35222 1-781): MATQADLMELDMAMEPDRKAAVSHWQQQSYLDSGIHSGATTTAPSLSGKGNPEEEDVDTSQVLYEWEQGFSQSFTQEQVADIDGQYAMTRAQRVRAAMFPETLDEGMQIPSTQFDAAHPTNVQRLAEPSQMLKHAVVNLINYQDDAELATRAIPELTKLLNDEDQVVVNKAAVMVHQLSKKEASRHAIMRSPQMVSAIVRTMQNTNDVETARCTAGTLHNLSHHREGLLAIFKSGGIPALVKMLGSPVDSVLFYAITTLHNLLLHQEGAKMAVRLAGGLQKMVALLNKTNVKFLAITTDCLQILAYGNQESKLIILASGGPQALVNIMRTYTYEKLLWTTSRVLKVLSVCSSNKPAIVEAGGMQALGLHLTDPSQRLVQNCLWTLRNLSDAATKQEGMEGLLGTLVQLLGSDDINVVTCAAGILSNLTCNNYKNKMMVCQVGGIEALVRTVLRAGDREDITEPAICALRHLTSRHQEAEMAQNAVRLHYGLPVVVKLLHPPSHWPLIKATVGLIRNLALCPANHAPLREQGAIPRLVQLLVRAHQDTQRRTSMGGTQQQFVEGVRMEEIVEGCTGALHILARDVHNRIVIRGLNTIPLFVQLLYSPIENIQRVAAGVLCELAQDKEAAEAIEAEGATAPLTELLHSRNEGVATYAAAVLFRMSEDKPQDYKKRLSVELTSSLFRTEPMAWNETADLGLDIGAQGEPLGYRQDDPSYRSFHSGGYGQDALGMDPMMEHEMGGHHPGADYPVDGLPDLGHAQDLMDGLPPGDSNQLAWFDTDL
# Experiment: Fluorescence polarization IC50 (beta-catenin / 5FAM-TCF4 10-53 competition)
# Type: binding
# Conditions: fluorescence polarization
# [1] = beta-catenin, read-out: FP EC50
SMILES,IC50 (read-out: beta-Catenin FP IC50) [nM],IC50 [1] [nM],IC50 (beta-Catenin FP IC50 (nM)) [nM]
"CC(=O)N1CCC[C@]12CC=CCCCC1(CCCC=CCCCOC(=O)N3CC[C@@](C(=O)N[C@@H](Cc4ccccc4)C(=O)N[C@@H](Cc4csc5ccccc45)C(=O)N[C@@H](CCO)C(N)=O)(C3)NC(=O)[C@H](CC(N)=O)NC(=O)[C@H](Cc3ccccc3)NC(=O)[C@H](CO)NC(=O)[C@H](CCCCNC(C)C)NC(=O)[C@H](CCC(N)=O)NC(=O)[C@H](CC(=O)O)NC1=O)NC(=O)[C@H](CC1CCCCC1)NC(=O)[C@H](CC(N)=O)NC2=O (stereo partly drawn) [I-1931, Ac-PL3-Asn-Cha-B5-Asp-Gln-iPrLys-Ser-Phe-Asn-PyrS2-Phe-BztA-Hse-NH2]",1560,,
"CC(C)C[C@@H]1NC(=O)[C@H](Cc2ccccc2)NC(=O)[C@H](C)NC(=O)[C@H](C)NC(=O)[C@H](CN(CC(=O)O)CC(F)(F)F)NC(=O)[C@H](CC(=O)O)NC(=O)C2(CCCCCCCCOC(=O)N3CC[C@@](C(=O)N[C@@H](Cc4ccsc4)C(=O)N[C@@H](Cc4csc5ccccc45)C(=O)N[C@@H](CCC(N)=O)C(N)=O)(C3)NC1=O)CCCCCCS(=O)(=O)N1CCC[C@@H]1C(=O)N[C@@H](CC(=O)O)C(=O)N[C@@H](CC(C)(C)C)C(=O)N2 (stereo partly drawn) [I-2267, ProSAm3-Asp-Npg-B5-Asp-TfeGA-Ala-Ala-Phe-Leu-PyrS2-3Thi-BztA-Gln-NH2]",499,,
"CC(=O)N1CCC[C@]12CC=CCCCC1(CCCC=CCCCOC(=O)N3CC[C@@](C(=O)N[C@@H](Cc4ccsc4)C(=O)N[C@@H](Cc4csc5ccccc45)C(=O)N[C@@H](CCC(N)=O)C(N)=O)(C3)NC(=O)[C@H](Cc3c[nH]cn3)NC(=O)[C@H](Cc3ccccc3)NC(=O)[C@H](C)NC(=O)[C@H](C)NC(=O)[C@H]([C@@H](C)O)NC(=O)[C@H](CC(N)=O)NC1=O)NC(=O)[C@H](CC(C)(C)C)NC(=O)[C@H](CC(=O)O)NC2=O (stereo partly drawn) [I-2147, Ac-PL3-Asp-Npg-B5-Asn-Thr-Ala-Ala-Phe-His-PyrS2-3Thi-BztA-Gln-NH2]",390,,
"CCCC[C@@H]1NC(=O)[C@H](Cc2ccccc2)NC(=O)[C@H](C)NC(=O)C(C)(C)NC(=O)[C@H](Cc2cccc(C(=O)O)c2)NC(=O)[C@H](CC(=O)O)NC(=O)C2(CCCC=CCCCOC(=O)N3CC[C@@](C(=O)N[C@@H](Cc4ccsc4)C(=O)N[C@@H](Cc4csc5ccccc45)C(=O)N[C@@H](CCC(=O)N4CCC(N5CCCCC5)CC4)C(N)=O)(C3)NC1=O)CCCC=CC[C@]1(CCCN1C(C)=O)C(=O)N[C@@H](CC(=O)O)C(=O)N[C@@H](CC(C)(C)C)C(=O)N2 (stereo partly drawn) [I-2555, Ac-PL3-Asp-Npg-B5-Asp-3COOHF-Aib-Ala-Phe-nLeu-PyrS2-3Thi-BztA-[4Pippip]GlnR-NH2]",11,,
"CC(=O)N1CCC[C@]12CC=CCCCC1(CCCC=CCCCOC(=O)N3CC[C@@](C(=O)N[C@@H](Cc4ccsc4)C(=O)N[C@@H](Cc4ccc5ccccc5c4)C(=O)N[C@@H](CCC(N)=O)C(N)=O)(C3)NC(=O)[C@H](CC(N)=O)NC(=O)[C@H](Cc3ccccc3)NC(=O)[C@H](C)NC(=O)[C@H](C)NC(=O)[C@H]([C@@H](C)O)NC(=O)[C@H](CC(N)=O)NC1=O)NC(=O)[C@H](CC(C)(C)C)NC(=O)[C@H](CC(=O)O)NC2=O (stereo partly drawn) [I-1873, Ac-PL3-Asp-Npg-B5-Asn-Thr-Ala-Ala-Phe-Asn-PyrS2-3Thi-2NapA-Gln-NH2]",1480,,
"CC(=O)N1CCC[C@]12CC=CCCCC1(CCCC=CCCCOC(=O)N3CC[C@@](C(=O)N[C@@H](Cc4ccsc4)C(=O)N[C@@H](Cc4csc5ccccc45)C(=O)N[C@@H](CCC(N)=O)C(N)=O)(C3)NC(=O)[C@H](CC(C)C)NC(=O)[C@H](Cc3ccccc3)NC(=O)[C@H](C)NC(=O)[C@H](C)NC(=O)[C@H](Cc3ccccc3)NC(=O)[C@H](CC(=O)O)NC1=O)NC(=O)[C@H](CC(C)(C)C)NC(=O)[C@H](CC(=O)O)NC2=O (stereo partly drawn) [I-1441, Ac-PL3-Asp-Npg-B5-Asp-Phe-Ala-Ala-Phe-Leu-PyrS2-3Thi-BztA-Gln-NH2]",327,,
"CC(C)C[C@@H]1NC(=O)[C@H](Cc2ccccc2)NC(=O)[C@H](C)NC(=O)[C@H](C)NC(=O)[C@H](Cc2cccc(C(=O)O)c2)NC(=O)[C@H](CC(=O)O)NC(=O)C2(CCCC=CCCCOC(=O)N3CC[C@@](C(=O)N[C@@H](Cc4ccccc4Cl)C(=O)N[C@@H](Cc4csc5ccccc45)C(=O)N[C@@H](C)C(N)=O)(C3)NC1=O)CCCC=CC[C@]1(CCCN1C(=O)CBr)C(=O)N[C@@H](CC(=O)O)C(=O)N[C@@H](CC(C)(C)C)C(=O)N2 (stereo partly drawn) [I-2286, BrAc-PL3-Asp-Npg-B5-Asp-3COOHF-Ala-Ala-Phe-Leu-PyrS2-2C1F-BztA-Ala-NH2]",,,88
"CC(=O)N1CCC[C@]12CCCCCCC1(CCCCCCCCOC(=O)N3CC[C@@](C(=O)N[C@@H](Cc4ccsc4)C(=O)N[C@@H](Cc4csc5ccccc45)C(=O)N[C@@H](Cc4ccccc4)C(N)=O)(C3)NC(=O)[C@H](CC(C)C)NC(=O)[C@H](Cc3ccccc3)NC(=O)[C@H](C)NC(=O)[C@H](CCCCNC(C)C)NC(=O)[C@H](CN(CC(=O)O)CC(F)(F)F)NC(=O)[C@H](CC(=O)O)NC1=O)NC(=O)[C@H](CC(C)(C)C)NC(=O)[C@H](CC(=O)O)NC2=O (stereo partly drawn) [I-1767, Ac-PL3-Asp-Npg-B5-Asp-TfeGA-iPrLys-Ala-Phe-Leu-PyrS2-3Thi-BztA-Phe-NH2]",327,,

# Further lines, with some results ahead:
IC50 (read-out: beta-Catenin FP IC50) [nM],IC50 [1] [nM],SMILES,IC50 (beta-Catenin FP IC50 (nM)) [nM]
10,,"CC(=O)N1CCC[C@]12CC=CCCCC1(CCCC=CCCCOC(=O)N3CC[C@@](C(=O)N[C@@H](Cc4ccsc4)C(=O)N[C@@H](Cc4csc5ccccc45)C(=O)N[C@@H](CCC(N)=O)C(N)=O)(C3)NC(=O)[C@H](Cn3cc(CN4CCNCC4)nn3)NC(=O)[C@H](Cc3ccccc3)NC(=O)[C@H](C)NC(=O)[C@H](C)NC(=O)[C@H](CN(CC(=O)O)CC(F)(F)F)NC(=O)[C@H](CC(=O)O)NC1=O)NC(=O)[C@H](CC(C)(C)C)NC(=O)[C@H](CC(=O)O)NC2=O (stereo partly drawn) [I-1863, Ac-PL3-Asp-Npg-B5-Asp-TfeGA-Ala-Ala-Phe-[CH2Ppz]TriAzDap-PyrS2-3Thi-BztA-Gln-NH2]",
124,124,"CCCC[C@@H]1NC(=O)[C@H](CC(=O)O)NC(=O)[C@]2(CC=CCCCC3(CCCC=CCCCOC(=O)N4CC[C@@](C(=O)N[C@@H](Cc5ccccc5Cl)C(=O)N[C@@H](Cc5csc6ccccc56)C(=O)N[C@@H](CC(C)C)C(N)=O)(C4)NC(=O)[C@H](CC(C)C)NC(=O)[C@H](Cc4ccccc4)NC(=O)[C@H](C)NC(=O)[C@H](C)NC(=O)[C@H](CC(=O)O)NC(=O)[C@H](CC(=O)O)NC3=O)NC1=O)CCCN2C(C)=O (stereo partly drawn) [I-1420, Ac-PL3-Asp-nLeu-B5-Asp-Asp-Ala-Ala-Phe-Leu-PyrS2-2C1F-BztA-Leu-NH2]",
17,,"CC(=O)N1CCC[C@]12CC=CCCCC1(CCCC=CCCCOC(=O)N3CC[C@@](C(=O)N[C@@H](Cc4ccccc4Cl)C(=O)N[C@@H](Cc4csc5ccccc45)C(=O)N[C@@H](CCC(N)=O)C(=O)N[C@H](CO)[C@@H](C)O)(C3)NC(=O)[C@H](CC(C)C)NC(=O)[C@H](Cc3ccccc3)NC(=O)[C@H](C)NC(=O)[C@H](C)NC(=O)[C@H](Cc3cccc(C(=O)O)c3)NC(=O)[C@H](CC(=O)O)NC1=O)NC(=O)[C@H](CC(C)(C)C)NC(=O)[C@H](CC(=O)O)NC2=O (stereo partly drawn) [I-1677, Ac-PL3-Asp-Npg-B5-Asp-3COOHF-Ala-Ala-Phe-Leu-PyrS2-2C1F-BztA-Gln-Thro1]",
140,,"CC(=O)N1CCC[C@]12CC=CCCCC1(CCCC=CCCCOC(=O)N3CC[C@@](C(=O)N[C@@H](Cc4ccsc4)C(=O)N[C@@H](Cc4csc5ccccc45)C(=O)N[C@@H](C)C(N)=O)(C3)NC(=O)[C@H](CC(N)=O)NC(=O)[C@H](Cc3ccccc3)NC(=O)[C@H](C)NC(=O)C(C)(C)NC(=O)[C@H]([C@@H](C)O)NC(=O)[C@H](CC(N)=O)NC1=O)NC(=O)[C@H](CC(C)(C)C)NC(=O)[C@H](CC(=O)O)NC2=O (stereo partly drawn) [I-2411, Ac-PL3-Asp-Npg-B5-Asn-Thr-Aib-Ala-Phe-Asn-PyrS2-3Thi-BztA-Ala-NH2]",
198,198,"CC(=O)N1CCC[C@]12CC=CCCCC1(CCCC=CCCCOC(=O)N3CC[C@@](C(=O)N[C@@H](Cc4ccccc4Cl)C(=O)N[C@@H](Cc4csc5ccccc45)C(=O)N[C@@H](CC(C)C)C(N)=O)(C3)NC(=O)[C@H](CC(C)C)NC(=O)[C@H](Cc3ccccc3)NC(=O)[C@H](C)NC(=O)[C@H](C)NC(=O)[C@H](CC(=O)O)NC(=O)[C@H](CC(=O)O)NC1=O)NC(=O)[C@H](CC(C)(C)C)NC(=O)[C@H](CC(=O)O)NC2=O (stereo partly drawn) [I-1417, Ac-PL3-Asp-Npg-B5-Asp-Asp-Ala-Ala-Phe-Leu-PyrS2-2C1F-BztA-Leu-NH2]",
24,,"CC(=O)N1CCC[C@]12CC=CCCCC1(CCCC=CCCCOC(=O)N3CC[C@@](C(=O)N[C@@H](CC4CCCC4)C(=O)N[C@@H](Cc4csc5ccccc45)C(=O)N[C@@H](CCC(N)=O)C(N)=O)(C3)NC(=O)[C@H](CC(C)C)NC(=O)[C@H](Cc3ccccc3)NC(=O)[C@H](C)NC(=O)[C@H](C)NC(=O)[C@H](CN(CC(=O)O)CC(F)(F)F)NC(=O)[C@H](CC(=O)O)NC1=O)NC(=O)[C@H](CC(C)(C)C)NC(=O)[C@H](CC(=O)O)NC2=O (stereo partly drawn) [I-1703, Ac-PL3-Asp-Npg-B5-Asp-TfeGA-Ala-Ala-Phe-Leu-PyrS2-CypA-BztA-Gln-NH2]",
